Data: publication PMC3441706 (PLoS ONE, 2012)

Experiments:
[1] = tested on: γH2AX (Ser139); assay: Immunofluorescence staining and quantification of γH2AX in HeLa cells; assay type: cell-based, human
Experimental: HCT116 and HeLa cells were seeded on glass cover slips in 6-well plates. 24 hours after plating, HCT116 cells were incubated with 0.15, 0.5 and 1 µM NVX-412 and 1 µM CPT for 24 hours for staining of p-p53. For investigating γH2AX, HeLa cells were incubated with 0.21, 0.5 and 1 µM NVX-412 and 1 µM CPT for 3 or 24 hours. Additionally, cells were allowed to recover for 24 hours in normal growth medium after 24 hours of incubation with NVX-412 or CPT (wash-out experiment). After the respective treatments, cells were washed and fixed with 4% methanol-free formaldehyde (Polysciences Inc. Warrington, PA, USA) for 15 minutes at room temperature and then permeabilized with 0.2% Triton X-100/PBS for 2 minutes at room temperature. After blocking with goat serum (5%) in 1% BSA/0.3% Triton X-100/PBS, the respective primary antibody was added and cells were incubated at 4°C overnight. Antibodies used were: mouse p-p53 (Ser15) (Cell Signaling Technology, Danvers, MA, USA) at 1∶100 dilution and mouse p-H2AX (Ser139) (Millipore, Billerica, MA, USA) at 1∶1000 dilution in 1% BSA/PBS, respectively. Cells were then washed 3 times for 10 minutes with 0.25% BSA/0.1% Triton X-100/PBS and incubated with the Alexa Fluor 488 conjugated secondary anti-mouse antibody (1∶1000 in 0.25% BSA/0.1% Triton X-100/PBS) for 1 hour at room temperature in the dark. Cells were washed 3 times for 10 minutes with 0.05% Tween-20/PBS containing Hoechst 33342 (Sigma Aldrich, Vienna, AUT) and mounted with mounting medium (Fluoprep, bioMérieux, Marcy l'Etoile, FRA). Fluorescence was immediately recorded on a Zeiss LSM700 laser scanning microscope.
The common procedure for assessing γH2AX induction is to count γH2AX foci. Since with NVX-412 and the positive control CPT γH2AX activation was that strong, no distinguishable and countable foci were seen. Therefore, the average γH2AX fluorescence intensity per nucleus was determined. To this end, γH2AX intensities within a certain field were measured using Quantity One –4.6.9 (Basic freeware version, Bio-Rad Laboratories, Hercules, CA, USA) and were divided by the number of nuclei in this field.

[2] = tested on: human white preadipocytes (hWP); assay: Cytotoxicity assay, normal cells; assay type: cell-based
Experimental: (§1) Cells were plated in 24-well plates. After cells were allowed to recover for 24 hours, NVX-412 was added in fresh growth medium. The maximal DMSO concentration reached in all experiments was below 0.01%. Respective control experiments at the highest DMSO concentration were performed in order to rule out DMSO-induced effects. After 72 hours incubation the proportion of viable cells was determined by cell counting with a Z1 Coulter Particle Counter (Beckman Coulter, Vienna, AUT), a ViCell XR (Beckman Coulter, Vienna, AUT) or a CASY® Cell Counter (Schärfe, Reutlingen, Germany). Cytotoxicity was expressed as IC50 values that were derived from the corresponding dose–response curves.

[3] = tested on: Normal human endothelial cells (HUVEC); assay: Cytotoxicity assay, normal cells; assay type: cell-based
Experimental: as §1

[4] = tested on: HT-29 cells; assay: Flow cytometric cell cycle analysis; assay type: cell-based, human; conditions: HT-29, 24 hours, IC50 concentration, 0.5 and 1 µM
Experimental: (§2) HT-29, HeLa and HCT116 cells were plated in 6-well plates. […] CPT was used at 50 nM and 1 µM. To analyze the cell cycle distribution, cells were collected after 24 hours of incubation and washed with PBS. Cells were fixed in 70% ethanol for at least 2 hours. For analysis, cells were transferred into PBS, incubated with RNAse A (0.04 µg/ml final concentration) for 30 minutes at 37°C, treated with […] propidium iodide for 30 min at 4°C and then analyzed by flow cytometry using BD FACScan (Becton, Dickinson and Company, Franklin Lakes, NJ, USA). The resulting DNA histograms were quantified using ModFit LT (Verity Software House, Topsham, ME, USA).

[5] = tested on: HCT116 cells; assay: Flow cytometric cell cycle analysis; assay type: cell-based, human; conditions: HCT116, 24 hours, IC50 concentration, 0.5 and 1 µM
Experimental: as §2

[6] = tested on: HeLa cells; assay: Flow cytometric cell cycle analysis; assay type: cell-based, human; conditions: 24 hours, IC50 concentration, 0.5 and 1 µM
Experimental: as §2

[7] = tested on: Central Nervous System Cancer cell lines; assay: NCI-60 DTP human tumor cell line screen (sulphorhodamine B); assay type: cell-based; conditions: 5 cell lines, 48 hours incubation
Experimental: (§3) NVX-412 was included in an anti-cancer activity screen by the National Cancer Institute (NCI). The compound was tested against 59 different human tumor cell lines, representing leukemia, melanoma and cancers of the lung, colon, brain, ovary, breast, prostate, and kidney (for a complete list of cell lines please refer to Shoemaker et al. 2006 [5]). The methodology of this in vitro cancer screen is described in detail on the NCI website (http://dtp.nci.nih.gov/branches/btb/ivclsp.html). Briefly, the human tumor cell lines of the cancer screening panel were grown in RPMI 1640 medium containing 5% FCS and 2 mM L-glutamine in 96-well plates at densities ranging from 5,000 to 40,000 cells/well. After 24 hours the experimental drug was added at 5 concentrations plus control and cells were incubated for additional 48 hours. For determination of the growth-inhibitory effect of the compound a sulphorhodamine B assay was performed that employs a chemical fixation step at the end of drug treatment and a subsequent staining for 10 minutes. After a washing step, absorbance was determined at 515 nm. Three different dose response parameters are then calculated: growth inhibition of 50% (GI50), which is the drug concentration resulting in a 50% reduction in the net protein increase, the drug concentration resulting in total growth inhibition (TGI) and the LC50, indicating a net loss of cells following treatment.

[8] = tested on: Renal Cancer cell lines; assay: as above; assay type: cell-based; conditions: 8 cell lines, 48 hours incubation
Experimental: as §3

[9] = tested on: Prostate Cancer cell lines; assay: as above; assay type: cell-based; conditions: 2 cell lines, 48 hours incubation
Experimental: as §3

[10] = tested on: Melanoma cell lines; assay: as above; assay type: cell-based; conditions: 9 cell lines, 48 hours incubation
Experimental: as §3

[11] = tested on: Ovarian Cancer cell lines; assay: as above; assay type: cell-based; conditions: 6 cell lines, 48 hours incubation
Experimental: as §3

[12] = tested on: Colon Cancer cell lines; assay: as above; assay type: cell-based; conditions: 7 cell lines, 48 hours incubation
Experimental: as §3

[13] = tested on: Breast Cancer cell lines; assay: as above; assay type: cell-based; conditions: 5 cell lines, 48 hours incubation
Experimental: as §3

[14] = tested on: Leukemia cell lines; assay: as above; assay type: cell-based; conditions: 6 cell lines, 48 hours incubation
Experimental: as §3

[15] = tested on: Non-Small Cell Lung Cancer cell lines; assay: as above; assay type: cell-based; conditions: 9 cell lines, 48 hours incubation
Experimental: as §3

O=C(NNc1nc2cc(F)ccc2n2cccc12)c1cnccn1 [NVX-412, Pyrazine-2-carboxylic acid N’- (7-fluoro-pyrrolo[1,2-α]quinoxalin-4-yl)-hydrazide-oxalic acid co-crystal]
γH2AX induction ([1]; 3 hours): Only a slight induction of γH2AX
γH2AX levels after recovery (wash-out) ([1]; 24 hours treatment then 24 hours without drug): decreased to nearly basal levels
γH2AX levels ([1]; 24 hours, 0.21, 0.5 and 1 µM): elevated after a 24 hour treatment in a dose-dependent manner
γH2AX staining increase (average fluorescence intensity per nucleus) ([1]; 24 hours, highest concentration tested, p-value <0.0001): up to 15 fold
IC50 [2]: 1000 nM
IC50 [3]: 2000 nM
Cell cycle distribution [4]: dose-dependent increase in the fraction of S-phase cells
Cell cycle distribution [5]: dose-dependent increase in the fraction of S-phase cells
Cell cycle distribution [6]: dose-dependent increase in the fraction of S-phase cells
IC50 [7]: 167 nM
IC50 [8]: 182 nM
IC50 [9]: 276 nM
IC50 [10]: 214 nM
IC50 [11]: 377 nM
IC50 [12]: 169 nM
IC50 [13]: 266 nM
IC50 [14]: 62 nM
IC50 [15]: 174 nM
